Drawing on patent US6583177B2, “Leukotriene B4 antagonist compounds and method for treatment” (Ono Pharmaceutical Co., Ltd., priority 1994, dated 2003), this text covers IC50 and inhibition for nine molecules.

The IC50 is the midpoint of a concentration-inhibition curve. What is called inhibition is the change of the read-out against control, counted positive when it falls. Lower therefore signals a weak effect.

Experiment [1] concerns the target T1, PLA2 (derived from hog pancreas) (Sus scrofa, UniProt P00592).
T1 construct: a solution of 10 mU/ml PLA2 (derived from hog pancreas) (50 μl); from tissue; host or cells: hog pancreas
The experiment in a line: Inhibitory activity on PLA2. The class given is biochemical. As to conditions: hog pancreas PLA2, 10PY-PC substrate, fluorescence, pH7.5. The procedure:
(1) Inhibitory Activity on PLA2
A reaction solution including 50 mM tris-HCl buffer (pH7.5, 874 μl; containing 100 mM sodium chloride, 1 mM EDTA), 1M calciumchloride (6 μl), 1% bovine serum albumin (10 μl) and 2.5 mM 10PY-PC (10 μl), was prepared. To the solution were added a test compound in various concentration or water (50 μl), and a solution of 10 mU/ml PLA2 (derived from hog pancreas) (50 μl). The appearance of fluorescence was measured (Ex=345 nm, Em=396 nm). Percentage (%) of the strength of fluorescence in the presence of a test compound was calculated when the strength of that in the absence thereof was regarded as 100%, and therefrom IC50 value was calculated.
10PY-PC represents 3′-palmitoyl-2-(1-pyrenedecanoyl)-L-α-phosphatidylcholine, […]

The target in experiment [2] is T2, trypsin (derived from bovine pancreas) (Bos taurus, UniProt P00760).
T2 construct: a solution of 80 mU/ml trypsin (derived from bovine pancreas) (50 μl); from tissue; host or cells: bovine pancreas
T2 sequence (P00760 24-246): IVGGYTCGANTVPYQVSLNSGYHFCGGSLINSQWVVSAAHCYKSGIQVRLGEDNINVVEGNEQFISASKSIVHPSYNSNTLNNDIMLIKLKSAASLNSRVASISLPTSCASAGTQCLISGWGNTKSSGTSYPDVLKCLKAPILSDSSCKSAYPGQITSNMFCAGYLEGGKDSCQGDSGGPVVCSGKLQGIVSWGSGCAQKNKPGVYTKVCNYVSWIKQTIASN
The experiment in a line: Inhibitory activity on trypsin. The class given is biochemical. The conditions noted are these: bovine pancreas trypsin, BAPNA substrate, 30° C., pH 8.0; read-out: inhibitory activity on trypsin IC50. How it is done:
(2) Inhibitory Activity on Trypsin
To a mixture of a 0.2 M HEPES.sodium hydroxide buffer solution (pH 8.0, 100 μl) and distilled water (640 μl), were added a test compound in various concentration or water (10 μl), and a solution of 80 mU/ml trypsin (derived from bovine pancreas) (50 μl) and then the mixture was preincubated for one minute at 30° C. To the solution thus obtained was added 2.5 mM BAPNA (200 μl) and the mixture was incubated at 30° C. The absorbance at 405 nm was measured. Percentage (%) of the absorbance in the presence of a test compound was calculated when the absorbance in the absence thereof was regarded as 100%, and therefrom IC50 value was calculated.
HEPES represents 4-2-hydroxyethyl)-1-piperazineethanesulfonic acid, and
BAPNA represents α-N-benzoyl-DL-arginine-p-nitroanilide hydrochloride.

The next experiment addresses T3, LTB4 receptor (Homo sapiens, UniProt Q15722).
T3 construct: The reaction was started by addition of a thoroughly mixed PMN cell suspension (1.6×10^6 cells); endogenous in cells; host or cells: human polymorphonuclear leukocytes (PMN), whole-cell suspension
The experiment in a line: Binding inhibition against 3H-LTB4 on the human polymorphonuclear leukocyte (PMN). As to conditions: percentage of inhibition of specific 3H-LTB4 (4nM) binding to human PMN, 0° C. for 20 min; formula (IB) compounds, Table 18. How it is done:
Binding Inhibition Against ^3H-LTB4 on the Human Polymorphonuclear Leukocyte (PMN)
0.049 ml Hanks balanced salt solution (HBSS), 0.001 ml test compound and 0.05 ml ^3H-LTB4 (4nM) were added to polypropylene tubes and mixed. The reaction was started by addition of a thoroughly mixed PMN cell suspension (1.6×10^6 cells), followed by incubation at 0° C. for 20 min. The reaction was terminated by the addition of ice-cold HBSS (2.5 ml). PMNs were harvested by vacuum filtration through Whatman GF/C glass fiber filters on a Brandel cell harvester (BRANDEL, M-24R). The filters were then washed 2 times to remove free ^3H-LTB4 with 2.5 ml of the ice-cold PBS (−) solution. The filters were transferred to each vial, and equilibrated after adding 8 ml ACS II cocktail (Amersham). The radioactivity was measured by liquid scintillation counter (Aloka, LSC-5100).
Specific binding of ^3H-LTB4 to the LTB4 receptor was defined as total binding minus nonspecific binding. Nonspecific binding was the amount of ^3H-LTB4 binding in the presence of 1.5 μM LTB4 instead of the test compound. The inhibitory effect of test compound was calculated from the following equation.
The percentage of inhibition (%)=100−(B1/B0×100)
B1: Specific ^3H-LTB4 binding in presence of test compound
B0: Specific ^3H-LTB4 binding in absence of test compound
The compounds of the formula (IB), of the present invention have an antagonistic activity on LTB4. The results which are measured by method as hereinbefore described in Example 1(A), are shown the following Table 18.

T3 sequence (Q15722 whole entry): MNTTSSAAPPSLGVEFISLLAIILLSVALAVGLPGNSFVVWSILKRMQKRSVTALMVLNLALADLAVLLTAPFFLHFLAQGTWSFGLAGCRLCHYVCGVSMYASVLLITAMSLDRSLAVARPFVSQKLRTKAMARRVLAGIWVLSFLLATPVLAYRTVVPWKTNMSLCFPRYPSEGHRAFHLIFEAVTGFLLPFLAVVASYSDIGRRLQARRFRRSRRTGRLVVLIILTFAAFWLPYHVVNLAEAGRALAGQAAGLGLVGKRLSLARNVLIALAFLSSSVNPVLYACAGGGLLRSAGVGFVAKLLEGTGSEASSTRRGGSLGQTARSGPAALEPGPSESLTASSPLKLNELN
T1 sequence (P00592 23-146): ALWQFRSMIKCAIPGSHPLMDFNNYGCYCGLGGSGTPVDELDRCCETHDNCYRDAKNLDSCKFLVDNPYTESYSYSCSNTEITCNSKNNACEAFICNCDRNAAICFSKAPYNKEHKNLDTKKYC

Regarding `CCOC(=O)CC(NC(=O)/C(C)=C/c1ccc(C(=O)Oc2ccc(C(=N)N)cc2)cc1)(C(=O)OCC)C(=O)OCC` [Example 2(k)], the IC50 in experiment [1] was 20 µM; in experiment [2], 0.1 µM. At LTB4 receptor, this molecule gave an inhibition of 97.7%.
For `C=CCN(CC(=O)OCC)C(=O)c1ccc(/C=C(\C)C(=O)Oc2ccc(C(=N)N)cc2)cc1` [Example 2(l)] the same measures were 94 µM, 0.12 µM and 81%.
For the molecule `CCOC(=O)CC[C@H](NC(=O)/C=C/C=C/c1ccc(C(=O)Oc2ccc(C(=N)N)cc2)cc1)C(=O)OCC` [Example 2(m)], the concentration for half-maximal inhibition (IC50) is 18 µM in experiment [1] and 0.17 µM in experiment [2]. In addition, the inhibition at LTB4 receptor worked out at 89.2%.
Taken in the same sequence, the figures for `C=CCN(CC(=O)OCC)C(=O)/C=C/C=C/c1ccc(C(=O)Oc2ccc(C(=N)N)cc2)cc1` [Example 2(n)] were 10 µM, 0.16 µM and 82.8%.
Turning to `C=CCC(NC(=O)/C(C)=C/c1ccc(C(=O)Oc2ccc(C(=N)N)cc2)cc1)(C(=O)OCC)C(=O)OCC` [Example 2(o)], the IC50 in experiment [1] amounted to 12 µM; in experiment [2], 0.14 µM. This molecule also showed an inhibition on LTB4 receptor of 85.8%.
Consider `CCOC(=O)CC[C@H](NC(=O)c1ccc(/C(C)=C/C(=O)Oc2ccc(C(=N)N)cc2)cc1)C(=O)OCC` [Example 2(p)], for which the figures for the IC50 in experiment [1] and in experiment [2] were 29 µM and 0.13 µM, respectively. At LTB4 receptor, this molecule registered an inhibition of 95.2%.
As to `C=CCN(CC(=O)OCC)C(=O)c1ccc(/C(C)=C/C(=O)Oc2ccc(C(=N)N)cc2)cc1` [Example 2(q)], the IC50 in experiment [1] turned out to be 34 µM; in experiment [2], 0.16 µM. Also, on LTB4 receptor, the inhibition was found to be 98%.
Taken in the same sequence, the figures for `CCOC(=O)CC[C@H](NC(=O)C(=Cc1ccc(C(=O)Oc2ccc(C(=N)N)cc2)cc1)C(=O)OCC)C(=O)OCC` [Example 2(r)] were 46 µM, 0.16 µM and 80.1%.
Take `C=CCN(CC(=O)OCC)C(=O)C(=Cc1ccc(C(=O)Oc2ccc(C(=N)N)cc2)cc1)C(=O)OCC` [Example 2(s)]: the IC50 in experiment [1] was 44 µM; in experiment [2] it was 0.16 µM. The same molecule came in with an inhibition on LTB4 receptor of 83%.
